Measured values: US9090600B2, “Fungicidal 4-substituted-3-{phenyl[(heterocyclylmethoxy)imino]methyl}-1,2,4-oxadizol-5(4H)-one derivatives” (BAYER INTELLECTUAL PROPERTY GMBH, priority 2011, dated 2015)
Like-named read-outs stand apart in the source and are kept apart here. Marks after values point to notes of the source that are not given here.

Columns and labels:
Phytophthora infestans [1] = format: in vivo; conditions: tomato, preventive spray, 100 ppm of active ingredient, evaluated 7 days after inoculation
[2] = pH 2.7
Puccinia recondita = test: In vivo test on Puccinia recondita (brown rust); conditions: wheat plants, spray, 500 ppm, grading 10 days after contamination
Experimental: The active ingredients tested are prepared by homogenization in a mixture of acetone/tween/DMSO, then diluted with water to obtain the desired active material.
Wheat plants (Scipion variety) sown on 50/50 peat soil-pozzolana substrate in starter cups and grown at 22° C. (12 h)/20° C. (12 h), are treated at the 1-leaf stage (10 cm tall) by spraying with the aqueous suspension described above.
Plants, used as controls, are treated with an aqueous solution not containing the active material. After 24 hours, the plants are contaminated by spraying the leaves with an aqueous suspension of Puccinia recondite spores (100.000 spores per ml). The spores are collected from a 10-day-old contaminated wheat and are suspended in water containing 2.5 ml/l of tween 80 10%. The contaminated wheat plants are incubated for 24 hours at 20° C. and at 100% relative humidity, and then for 10 days at 20° C. and at 70% relative humidity. Grading is carried out 10 days after the contamination, in comparison with the control plants.
(§1) Under these conditions, good (at least 70%) or total protection is observed at a dose of 500 ppm with the following compounds: […]

Plasmopara viticola = test: Plasmopara test (grapevines)/preventive; format: in vivo; conditions: preventive spray, 10 ppm of active ingredient, evaluated 6 days after inoculation
Experimental: Solvent: 24.5 parts by weight of acetone • 24.5 parts by weight of dimethylacetamide
Emulsifier: 1 part by weight of alkylaryl polyglycol ether
To produce a suitable preparation of active compound, 1 part by weight of active compound is mixed with the stated amounts of solvent and emulsifier, and the concentrate is diluted with water to the desired concentration.
To test for preventive activity, young plants are sprayed with the preparation of active compound at the stated rate of application. After the spray coating has dried on, the plants are inoculated with an aqueous spore suspension of Plasmopara viticola and then remain for 1 day in an incubation cabinet at approximately 20° C. and a relative atmospheric humidity of 100%. The plant is subsequently placed for 4 days in a greenhouse at approximately 21° C. and a relative atmospheric humidity of approximately 90%. The plants are then misted and placed for 1 day in an incubation cabinet.
The test is evaluated 6 days after the inoculation. 0% means an efficacy which corresponds to that of the untreated control, while an efficacy of 100% means that no disease is observed.

Phytophthora infestans [3] = format: in vivo; conditions: tomato plants, spray, 500 ppm, grading 5 days after contamination
[4] = tested on: Mycosphaerella graminicola; test: In vivo test on Mycosphaerella graminicola (wheat leaf spot); conditions: wheat plants, spray, 500 ppm, grading 21 to 28 days after contamination
Experimental: The active ingredients tested are prepared by homogenization in a mixture of acetone/tween/DMSO, then diluted with water to obtain the desired active material concentration.
Wheat plants (Scipion variety), sown on a 50/50 peat soil-pozzolana substrate in starter cups and grown at 22° C. (12 h)/20° C. (12 h), are treated at the 1-leaf stage (10 cm tall) by spraying with the aqueous suspension described above. Plants, used as controls, are treated with an aqueous solution not containing the active material.
After 24 hours, the plants are contaminated by spraying them with an aqueous suspension of cryopreserved Mycosphaerella graminicola spores (500.000 spores per ml). The contaminated wheat plants are incubated for 72 hours at 18° C. and at 100% relative humidity, and then for 21 to 28 days at 90% relative humidity.
Grading (% of efficacy) is carried out 21 to 28 days after the contamination, in comparison with the control plants.
as §1

| Compound | Eff. % (Phytophthora infestans [1]) | LogP [2] | Eff. % (Puccinia recondita) | Eff. % (Plasmopara viticola) | Eff. % (Phytophthora infestans [3]) | Eff. % [4] |
| --- | --- | --- | --- | --- | --- | --- |
| C#CCCOC(=O)Nc1cccc(CO/N=C(/c2ccccc2)c2noc(=O)n2CC#C)n1 [Example 86] | 90% | 3.46 [a] | – | – | – | – |
| C#CCCC(C)OC(=O)Nc1cccc(CO/N=C(/c2ccccc2)c2noc(=O)n2C)n1 (stereo not shown) [Example 395] | – | 3.8 [a] | 72% | 93% | 99% | – |
| CCC(Oc1ccccc1)C(=O)Nc1nc(CO/N=C(/c2ccccc2)c2noc(=O)n2C)cs1 (stereo not shown) [Example 322] | 75% | 3.99 [a] | – | – | – | – |
| CCn1c(/C(=N\OCc2cccc(NC(=O)Cc3ccc(OC)cc3)n2)c2ccccc2)noc1=O [Example 88] | – | 3.7 [a] | 78% | – | 98% | – |
| CCCCCOC(=O)Nc1nc(CO/N=C(/c2ccccc2)c2noc(=O)n2C)cs1 [Example 12] | 95% | 4.11 [a] | – | 94% | – | – |
| C#CCCOC(=O)Nc1cccc(CO/N=C(/c2ccccc2)c2noc(=O)n2CC#N)n1 [Example 70] | 84% | 3.31 [a] | – | – | – | – |
| CCCCCOC(=O)Nc1cccc(CO/N=C(\c2ccccc2)c2noc(=O)n2C)n1 [Example 26] | 93% | 4.24 [a] | – | – | – | – |
| Cn1c(/C(=N\OCc2csc(NC(=O)C3COc4ccccc4O3)n2)c2ccccc2)noc1=O (stereo not shown) [Example 10] | 95% | 3.62 [a] | – | 96% | – | – |
| Cn1c(/C(=N\OCc2cccc(NC(=O)C(C)(C)C)n2)c2ccccc2)noc1=O [Example 148] | 97% | 3.48 [a] | – | 100% | 100% | – |
| CCCCC(=O)Nc1nc(CO/N=C(/c2ccccc2)c2noc(=O)n2C)cs1 [Example 13] | 95% | 3.37 [a] | – | 93% | – | – |
| CCCCCCC(=O)Nc1cccc(CO/N=C(/c2ccccc2)c2noc(=O)n2C)n1 [Example 8] | 98% | 4.3 [a] | – | 99% | 100% | – |
| CCC(C)(C)OC(=O)Nc1cccc(CO/N=C(/c2ccccc2)c2noc(=O)n2C)n1 [Example 120] | – | 1.99 [a] | 98% | 84% | 100% | – |
| Cn1c(/C(=N\OCc2cccc(NCCc3ccccc3)n2)c2ccccc2)noc1=O [Example 74] | 95% | 2.78 [a] | – | 94% | – | – |
| Cn1c(/C(=N\OCc2csc(NC(=O)c3cccc(F)c3)n2)c2ccccc2)noc1=O [Example 20] | 95% | 3.6 [a] | – | 94% | – | – |
| Cc1cccc(/C(=N/OCc2cccc(NC(=O)OC(C)CC(C)C)n2)c2noc(=O)n2C)c1 (stereo not shown) [Example 223] | – | 5.05 [a] | – | – | – | 80% |
| Cn1c(/C(=N\OCc2cccc(NC(=O)CCCCBr)n2)c2ccccc2)noc1=O [Example 73] | – | 3.59 [a] | 81% | – | 100% | – |
| Cn1c(/C(=N\OCc2csc(NC(=O)C3CCc4ccccc4O3)n2)c2ccccc2)noc1=O (stereo not shown) [Example 11] | 100% | 3.94 [a] | – | 98% | – | – |
| CC(C)C(C)OC(=O)Nc1cccc(CO/N=C(/c2ccccc2)c2noc(=O)n2C)n1 (stereo not shown) [Example 292] | – | 4.27 [a] | 75% | 90% | 99% | – |
| COc1cccc(/C(=N/OCc2cccc(NC(=O)OC(C)(C)C)n2)c2noc(=O)n2C)c1 [Example 131] | – | 3.99 [a] | 81% | – | 100% | – |
| Cn1c(/C(=N\OCc2cccc(NC(=O)OCCc3ccccc3)n2)c2ccccc2)noc1=O [Example 7] | 95% | 4.15 [a] | – | 96% | – | – |
| CCCCCCNc1cccc(CO/N=C(/c2ccccc2)c2noc(=O)n2C)n1 [Example 163] | 95% | 2.64 [a] | – | 96% | – | – |

| Compound | Eff. % (Phytophthora infestans [1]) | LogP [2] | Eff. % (Puccinia recondita) | Eff. % (Plasmopara viticola) | Eff. % (Phytophthora infestans [3]) | Eff. % [4] |
| --- | --- | --- | --- | --- | --- | --- |
| Cn1c(/C(=N\OCc2cccc(NC(=O)c3cccc(F)c3)n2)c2ccccc2)noc1=O [Example 17] | 98% | 3.69 [a] | – | 94% | – | – |
| Cn1c(/C(=N\OCc2cccc(NC(=O)OCCC3CCCCC3)n2)c2ccccc2)noc1=O [Example 5] | 95% | 5.27 [a] | – | 88% | – | – |
| CCCCCCC(=O)Nc1nc(CO/N=C(/c2ccccc2)c2noc(=O)n2C)cs1 [Example 9] | 95% | 4.13 [a] | – | 94% | – | – |
| Cn1c(/C(=N\OCc2cccc(NC(=O)OCC3CCCC3)n2)c2ccccc2)noc1=O [Example 16] | 98% | 4.53 [a] | – | 94% | – | – |
| Cn1c(/C(=N\OCc2cccc(NC(=O)CCCl)n2)c2ccccc2)noc1=O [Example 63] | – | 3.02 [a] | 75% | – | 100% | – |
| CCCCCC(=O)Nc1nc(CO/N=C(/c2ccccc2)c2noc(=O)n2C)cs1 [Example 198] | 95% | 3.76 [a] | – | 100% | – | – |
| CCCCOC(=O)Nc1cccc(CO/N=C(/c2cccc(C)c2)c2noc(=O)n2C)n1 [Example 215] | – | 4.36 [a] | 81% | – | 98% | – |
| Cn1c(/C(=N\OCc2cccc(NC(=O)CCc3ccccc3)n2)c2ccccc2)noc1=O [Example 347] | 92% | 3.78 [a] | – | 100% | 100% | – |
| Cn1c(/C(=N\OCc2cccc(NC(=O)CCc3ccccc3)n2)c2ccc(F)cc2)noc1=O [Example 324] | – | 3.87 [a] | 75% | – | 94% | – |
| COc1ccc(/C(=N/OCc2cccc(NC(=O)C(F)(F)F)n2)c2noc(=O)n2C)cc1 [Example 191] | – | 3.37 [a] | 89% | – | 95% | – |
| C#CCCOC(=O)Nc1cccc(CO/N=C(/c2ccccc2)c2noc(=O)n2CC)n1 [Example 104] | 93% | 3.51 [a] | – | 100% | – | – |
| Cn1c(/C(=N\OCc2csc(NC(=O)C(C)(C)C)n2)c2ccccc2)noc1=O [Example 154] | 95% | 3.42 [a] | – | – | – | – |
| COc1cccc(/C(=N/OCc2cccc(NC(=O)OCCc3ccccc3)n2)c2noc(=O)n2C)c1 [Example 325] | – | 4.19 [a] | 75% | 84% | 99% | – |
| Cn1c(/C(=N\OCc2cccc(NC(=O)OC3CCCCC3)n2)c2ccc(F)cc2)noc1=O [Example 351] | – | 4.54 [a] | 75% | – | 93% | – |
| C#CCCOC(=O)Nc1cccc(CO/N=C(/c2ccccc2)c2noc(=O)n2CC=C)n1 [Example 405] | 95% | 3.61 [a] | – | 85% | – | – |
| C#CC(C)(C)OC(=O)Nc1cccc(CO/N=C(/c2ccccc2)c2noc(=O)n2C)n1 [Example 317] | – | 3.6 [a] | 81% | 91% | 98% | – |
| CCCCOCC(=O)Nc1cccc(CO/N=C(/c2ccccc2)c2noc(=O)n2C)n1 [Example 240] | – | 3.97 [a] | – | 80% | 100% | – |
| CCCCCC(=O)Nc1cccc(CO/N=C(/c2cccc(C)c2)c2noc(=O)n2C)n1 [Example 355] | – | 4.24 [a] | – | 75% | 100% | – |
| Cn1c(/C(=N\OCc2cccc(NC/C=N/OCc3ccccc3)n2)c2ccccc2)noc1=O [Example 136] | 95% | 3.35 [a] | – | 75% | – | – |
| C#CCCOC(=O)Nc1cccc(CO/N=C(/c2ccccc2)c2noc(=O)n2C(F)F)n1 [Example 58] | 80% | 3.64 [a] | – | – | – | – |
